Earlier results in US6884429B2, “Medical devices incorporating deuterated rapamycin for controlled delivery thereof” (Isotechnika International Inc., priority 1997, dated 2005).

Conditions: plasma and low-, and neuteral -pH buffers at 37° C.

With `CO[C@H]1C[C@@H]2CC[C@@H](C)[C@@](O)(O2)C(=O)C(=O)N2CCCC[C@H]2C(=O)O[C@H]([C@H](C)C[C@@H]2CC[C@@H](O)[C@H](OC)C2)CC(=O)[C@H](C)/C=C(\C)[C@@H](O)[C@@H](OC)C(=O)[C@H](C)C[C@H](C)/C=C/C=C/C=C/1C` [Rapamycin] as the compound, how does the “half-life of degradation in solution” value read?
Its value is < 10 h.
